Test results taken from the supplement of paper PMC10307832.

Experiments:
Test in all cases: relative viability (nuclei count vs DMSO), 5 days (fraction); higher = more cells survive
AZ505 + Bortezomib = compound: C1CCC(CC1)N(CCNCCC2=C3C(=C(C=C2)O)NC(=O)CO3)C(=O)CCNCCC4=CC(=C(C=C4)Cl)Cl [AZ505] + CC(C)C[C@H](NC(=O)[C@H](Cc1ccccc1)NC(=O)c1cnccn1)B(O)O [Bortezomib] (partner 0.002 µM)
How it was run: (§1)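 One day after seeding in 1536-well plates, lung cancer cell lines were dosed by pin tool. Dosing was either single-drug or a fixed anchor-drug dose plus five library-drug doses (not always all listed) in √10 steps. After 5 days, nuclei were stained in one fix-and-stain step and counted on 4× images, and relative viability is the nuclei count of treated wells over that of vehicle wells, given as the median of duplicate plates.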

AZ505 + Navitoclax = compound: C1CCC(CC1)N(CCNCCC2=C3C(=C(C=C2)O)NC(=O)CO3)C(=O)CCNCCC4=CC(=C(C=C4)Cl)Cl [AZ505] + CC1(C)CCC(c2ccc(Cl)cc2)=C(CN2CCN(c3ccc(C(=O)NS(=O)(=O)c4ccc(N[C@H](CCN5CCOCC5)CSc5ccccc5)c(S(=O)(=O)C(F)(F)F)c4)cc3)CC2)C1 [Navitoclax] (partner 0.5 µM)
How it was run: as §1

AZ505 + Pemetrexed = compound: C1CCC(CC1)N(CCNCCC2=C3C(=C(C=C2)O)NC(=O)CO3)C(=O)CCNCCC4=CC(=C(C=C4)Cl)Cl [AZ505] + Nc1nc2[nH]cc(CCc3ccc(C(=O)N[C@@H](CCC(=O)O)C(=O)O)cc3)c2c(=O)[nH]1 [Pemetrexed] (partner 0.2 µM)
How it was run: as §1

Dactolisib + Phenformin = compound: Cn1c(=O)n(-c2ccc(C(C)(C)C#N)cc2)c2c3cc(-c4cnc5ccccc5c4)ccc3ncc21 [Dactolisib] + N=C(N)NC(=N)NCCc1ccccc1 [Phenformin] (partner 250 µM)
How it was run: as §1

Row | Cell Line | relative viability (AZ505 + Bortezomib; first compound 0.08 µM) | relative viability (AZ505 + Bortezomib; first compound 0.253 µM) | relative viability (AZ505 + Bortezomib; first compound 0.8 µM) | relative viability (AZ505 + Bortezomib; first compound 2.53 µM) | relative viability (AZ505 + Bortezomib; first compound 8 µM) | relative viability (AZ505 + Navitoclax; first compound 0.08 µM) | relative viability (AZ505 + Navitoclax; first compound 0.253 µM) | relative viability (AZ505 + Navitoclax; first compound 0.8 µM) | relative viability (AZ505 + Navitoclax; first compound 2.53 µM) | relative viability (AZ505 + Navitoclax; first compound 8 µM) | relative viability (AZ505 + Pemetrexed; first compound 0.08 µM) | relative viability (AZ505 + Pemetrexed; first compound 0.253 µM) | relative viability (AZ505 + Pemetrexed; first compound 0.8 µM) | relative viability (AZ505 + Pemetrexed; first compound 2.53 µM) | relative viability (AZ505 + Pemetrexed; first compound 8 µM) | relative viability (Dactolisib + Phenformin; first compound 0.002 µM) | relative viability (Dactolisib + Phenformin; first compound 0.006325 µM) | relative viability (Dactolisib + Phenformin; first compound 0.02 µM) | relative viability (Dactolisib + Phenformin; first compound 0.06325 µM) | relative viability (Dactolisib + Phenformin; first compound 0.2 µM)
1 | 201T | 1.09 | 1.11 | 1.06 | 1.11 | 1.07 | 1.19 | 1.24 | 1.17 | 1.18 | 1.19 | 0.343 | 0.342 | 0.403 | 0.345 | 0.31 | 0.476 | 0.483 | 0.446 | 0.414 | 0.428
2 | A549 | – | – | – | – | – | 1.2 | 1.23 | 1.14 | 1.2 | 1.32 | – | – | – | – | – | 0.183 | 0.153 | 0.172 | 0.103 | 0.0668
3 | A-427 | 0.928 | 0.978 | 1.03 | 0.917 | 0.997 | 0.967 | 0.942 | 0.919 | 0.949 | 0.802 | 0.964 | 0.961 | 0.904 | 0.948 | 1.01 | 0.366 | 0.335 | 0.348 | 0.263 | 0.244
4 | ABC-1 | 0.31 | 0.281 | 0.303 | 0.313 | 0.256 | – | – | – | – | – | – | – | – | – | – | 0.246 | 0.244 | 0.24 | 0.231 | 0.199
5 | BEN | 0.744 | 0.806 | 0.809 | 0.861 | 0.842 | 0.078 | 0.0642 | 0.0775 | 0.0686 | 0.0829 | 0.682 | 0.678 | 0.871 | 0.746 | 0.786 | 0.231 | 0.263 | 0.245 | 0.248 | 0.237
6 | CAL-12T | 0.946 | 0.82 | 0.835 | 0.936 | 1.01 | 1.12 | 1.15 | 1.21 | 1.29 | 1.24 | 1.08 | 1.2 | 1.26 | 1.29 | 1.46 | 0.672 | 0.567 | 0.508 | 0.236 | 0.192
7 | COR-L23 | 0.996 | 1.1 | 0.888 | 0.925 | 0.832 | 0.893 | 1.01 | 0.877 | 0.833 | 0.928 | 0.185 | 0.204 | 0.201 | 0.185 | 0.186 | 0.508 | 0.417 | 0.429 | 0.229 | 0.159
8 | COR-L 105 | 0.712 | 0.907 | 0.813 | 0.65 | 0.77 | 0.772 | 0.692 | 0.83 | 0.844 | 0.778 | 0.979 | 1.05 | 1.06 | 1.1 | 1.14 | 0.494 | 0.489 | 0.432 | 0.256 | 0.259
9 | Calu-6 | 0.969 | 1.07 | 0.906 | 0.915 | 1.12 | 0.778 | 0.818 | 0.799 | 0.897 | 0.937 | – | – | – | – | – | – | – | – | – | –
10 | ChaGo-K-1 | 0.945 | 0.91 | 1.04 | 1 | 1.13 | 1.02 | 0.856 | 1.04 | 1.14 | 1.07 | 0.26 | 0.268 | 0.28 | 0.252 | 0.258 | 0.457 | 0.457 | 0.464 | 0.374 | 0.444
11 | EBC-1 | 0.479 | 0.519 | 0.452 | 0.533 | 0.515 | 0.353 | 0.442 | 0.405 | 0.435 | 0.431 | – | – | – | – | – | – | – | – | – | –
12 | EKVX | 0.992 | 0.906 | 0.986 | 1.09 | 0.992 | 0.84 | 0.961 | 0.986 | 0.994 | 1.03 | – | 0.385 | 0.384 | 0.41 | 0.403 | 0.26 | 0.222 | 0.229 | 0.225 | 0.215
13 | EMC-BAC-2 | 0.988 | 1.03 | 0.972 | 1.01 | 1.1 | 1.12 | 1.26 | 1.15 | 1.14 | 1.27 | 0.412 | 0.491 | 0.417 | 0.499 | 0.451 | 0.51 | 0.529 | 0.519 | 0.336 | 0.251
14 | EPLC-272H | 0.769 | 1.04 | 0.85 | 0.721 | 0.904 | 1.07 | 0.967 | 1.08 | 0.934 | 1.06 | 0.246 | 0.318 | 0.254 | 0.245 | 0.232 | 0.351 | 0.25 | 0.268 | 0.228 | 0.259
15 | H3255 | 0.558 | 0.812 | 0.817 | 0.804 | 0.758 | 0.439 | 0.526 | 0.529 | 0.698 | 0.615 | 0.521 | 0.556 | 0.602 | 0.571 | 0.616 | 0.386 | 0.354 | 0.388 | 0.328 | 0.348
16 | HARA | 1.04 | 1.01 | 0.914 | 1.03 | 0.916 | 1.14 | 1.12 | 1.12 | 1.07 | 1.08 | 0.208 | – | 0.213 | 0.24 | 0.228 | 0.467 | 0.441 | 0.51 | 0.405 | 0.211
17 | HCC-15 | 0.973 | 1.08 | 1.01 | 0.989 | 1.02 | 0.657 | 0.734 | 0.697 | 0.721 | 0.669 | 0.209 | 0.231 | 0.22 | 0.218 | 0.24 | 0.482 | 0.488 | 0.449 | 0.291 | 0.184
18 | HCC-44 | 0.865 | 0.883 | 0.879 | 0.915 | 0.86 | 1 | 0.963 | 0.927 | 1.01 | 0.939 | 0.683 | 0.643 | 0.659 | 0.638 | 0.673 | 0.274 | 0.203 | 0.171 | – | 0.166
